In patent US10385019B2, “Inhibitors of EGFR and methods of use thereof” (Dana-Farber Cancer Institute, Inc., priority 2015, dated 2019):

The molecules below were run against EGFR T790M/L858R Ba/F3 cell line (Homo sapiens, UniProt P00533, T790M/L858R, cells depend on it) (assay: Ba/F3 cell proliferation model). Conditions: combined with cetuximab (% cetuximab, 1.0 μM drug concentration with 1.0 μg/mL cetuximab).
Chain of EGFR T790M/L858R Ba/F3 cell line (P00533 whole entry T790M/L858R): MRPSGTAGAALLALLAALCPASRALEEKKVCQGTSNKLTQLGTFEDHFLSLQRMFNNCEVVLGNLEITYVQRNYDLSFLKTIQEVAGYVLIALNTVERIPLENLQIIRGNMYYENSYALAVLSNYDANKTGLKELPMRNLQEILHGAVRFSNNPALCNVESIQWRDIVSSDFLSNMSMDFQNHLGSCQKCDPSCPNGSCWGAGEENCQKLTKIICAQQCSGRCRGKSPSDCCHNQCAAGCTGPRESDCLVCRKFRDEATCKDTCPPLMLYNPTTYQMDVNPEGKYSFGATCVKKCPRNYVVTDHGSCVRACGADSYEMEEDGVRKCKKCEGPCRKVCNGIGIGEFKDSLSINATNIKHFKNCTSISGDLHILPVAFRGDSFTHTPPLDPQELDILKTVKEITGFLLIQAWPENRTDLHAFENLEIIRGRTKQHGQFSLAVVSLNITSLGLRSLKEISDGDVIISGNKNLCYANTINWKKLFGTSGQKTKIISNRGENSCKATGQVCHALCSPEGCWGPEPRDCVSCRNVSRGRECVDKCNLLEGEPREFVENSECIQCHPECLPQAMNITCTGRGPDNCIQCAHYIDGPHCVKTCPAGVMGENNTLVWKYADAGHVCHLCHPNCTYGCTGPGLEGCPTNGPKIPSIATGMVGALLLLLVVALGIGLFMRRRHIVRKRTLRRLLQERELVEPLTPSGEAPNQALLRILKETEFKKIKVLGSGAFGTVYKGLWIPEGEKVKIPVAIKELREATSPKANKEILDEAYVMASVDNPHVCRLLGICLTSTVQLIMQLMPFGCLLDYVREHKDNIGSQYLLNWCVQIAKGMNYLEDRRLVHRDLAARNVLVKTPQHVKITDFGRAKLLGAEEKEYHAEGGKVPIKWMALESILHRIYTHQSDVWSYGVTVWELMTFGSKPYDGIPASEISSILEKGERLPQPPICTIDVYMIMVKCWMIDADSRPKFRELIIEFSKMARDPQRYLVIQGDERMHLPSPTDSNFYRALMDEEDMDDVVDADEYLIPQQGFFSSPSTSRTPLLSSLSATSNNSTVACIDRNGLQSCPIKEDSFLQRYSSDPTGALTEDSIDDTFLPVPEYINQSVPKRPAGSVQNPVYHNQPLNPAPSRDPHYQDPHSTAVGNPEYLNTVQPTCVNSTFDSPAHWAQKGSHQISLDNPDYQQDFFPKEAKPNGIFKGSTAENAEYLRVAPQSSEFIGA
Assay type: cell-based, murine
Excerpt: The selectivity between wild-type EGFR and EGFR containing one or more mutations as described herein can also be measured using cellular proliferation assays where cell proliferation is dependent on kinase activity. For example, murine Ba/F3 cells transfected with a suitable version of wild-type EGFR (such as VIII; containing a WT EGFR kinase domain), or Ba/F3 cells transfected with L858R/T790M, Del/T790M/L718Q, L858R/T790M/L718Q, L858R/T790M/C797S, Del/T790M/C797S, L858R/T790M/I941R, or Exon 19 deletion/T790M can be used.
Cell lines are plated in media. The compounds of the present disclosure are then serially diluted and transferred to the cells. Cell viability is measured via a luminescent readout. Data is analyzed by non-linear regression curve-fitting. […]
The EGFR mutant L858R, Del E746_A750, L858R/T790M, DelE746_A750/T790M, L858R/T790M/C797S and Del/T790M/C797S Ba/F3 cells have been previously described (Zhou, W., Ercan, D., Chen, L., Yun, C. H., Li, D., Capelletti, M., Cortot, A. B., Chirieac, L., Iacob, R. E., Padera, R., et al. “Novel mutant-selective EGFR kinase inhibitors against EGFR T790M,” Nature 462, (2009), 1070-1074). All cell lines were maintained in RPMI 1640 (Cellgro; Mediatech Inc., Herndon, Calif.) supplemented with 10% FBS 100 units/mL penicillin, 100 units/mL streptomycin, and 2 mM glutamine. L858R cells were maintained in ACL-4 media (Invitrogen, Carlsbad, Calif.) supplemented with 5% FBS, 100 units/mL penicillin, 100 units/mL streptomycin, and 2 mM glutamine. The EGFR I941R mutation was introduced via site directed mutagenesis using the Quick Change Site-Directed Mutagenesis kit (Stratagene; La Jolla, Calif.) according to the manufacturer's instructions. All constructs were confirmed by DNA sequencing. The constructs were shuttled into the retroviral vector JP 1540 using the BD Creator™ System (BD Biosciences). Ba/F3 cells were infected with retrovirus and according to standard protocols, as described previously (Zhou et al, Nature 2009). Stable clones were obtained by selection in puromycin (2 μg/ml).
Growth and inhibition of growth was assessed by MTS assay and was performed according to previously established methods (Zhou et al., Nature 2009). The MTS assay is a colorimetric method for determining the number of viable cells that is based on the bioreduction of MTS by cells to a formazan product that is soluble in cell culture medium and can be detected spectrophotometrically. Ba/F3 cells of different EGFR genotypes were exposed to treatment for 72 hours and the number of cells used per experiment determined empirically and has been previously established (Zhou et al., Nature 2009). All experimental points were set up in six wells and all experiments were repeated at least three times. […] The curves were fitted using a non-linear regression model with a sigmoidal dose response.
Inhibition data of an EGFR T790M/L858R Ba/F3 cell line.
In the case of `O=C(Nc1nccs1)[C@@H](c1ccccc1)N1Cc2ccc(-c3ccc(F)cc3)cc2C1=O` [Compound I-77, (R)-2-(6-(4-fluorophenyl)-1-oxoisoindolin-2-yl)-2-phenyl-N-(thiazol-2-yl)acetamide], the “Activity (% inhibition)” value is reported as “B (a % inhibition of between about 50% to about 75%)”.
`O=C(O)c1ccc(-c2ccc3c(c2)C(=O)N([C@@H](C(=O)Nc2nccs2)c2ccccc2)C3)cc1` [Compound I-78, (R)-4-(3-oxo-2-(2-oxo-1-phenyl-2-(thiazol-2-ylamino)ethyl)isoindolin-5-yl)benzoic acid] was tested, and the “Activity (% inhibition)” value was “A (a % inhibition of about 75%)”.
With `O=C(Nc1nccs1)[C@@H](c1ccccc1)N1Cc2cc(-c3ccc4c(c3)OCCO4)ccc2C1=O` [Compound I-103, (R)-2-(5-(2,3-dihydrobenzo[b] [1,4]dioxin-6-yl)-1-oxoisoindolin-2-yl)-2-phenyl-N-(thiazol-2-yl)acetamide] the “Activity (% inhibition)” value was “C (a % inhibition of between about 25% to about 50%)”.
`O=C(Nc1ccccn1)[C@@H](c1ccccc1)N1Cc2ccccc2C1=O` [Compound I-31, (R)-2-(1-oxoisoindolin-2-yl)-2-phenyl-N-(pyridin-2-yl) acetamide] was tested, and the “Activity (% inhibition)” value was “A (a % inhibition of about 75%)”.
With `O=C(Nc1nccs1)[C@@H](Cc1ccccc1)N1Cc2ccccc2C1=O` [Compound I-39, (R)-2-(1-oxoisoindolin-2-yl)-3-phenyl-N-(thiazol-2-yl)propanamide] the “Activity (% inhibition)” value was “A (a % inhibition of about 75%)”.
With `O=C(Nc1nc2cccnc2s1)[C@@H](c1ccccc1)N1Cc2ccccc2C1=O` [Compound I-32, (R)-2-(1-oxoisoindolin-2-yl)-2-phenyl-N-(thiazolo [5,4-b]pyridin-2-yl)acetamide] the “Activity (% inhibition)” value was “A (a % inhibition of about 75%)”.
`CN(C)C1CCN(C(=O)c2csc(NC(=O)[C@@H](c3ccccc3)N3Cc4ccccc4C3=O)n2)CC1` [Compound I-23, (R)-N-(4-(4-(dimethylamino)piperidine-1-carbonyl)thiazol-2-yl)-2-(1-oxoisoindolin-2-yl)-2-phenylacetamide] was tested, and the “Activity (% inhibition)” value was “A (a % inhibition of about 75%)”.
`O=C(Nc1cnsc1)[C@@H](c1ccccc1)N1Cc2ccc(-c3ccc4[nH]ccc4c3)cc2C1=O` [Compound I-128, (R)-2-(6-(1H-indol-5-yl)-1-oxoisoindolin-2-yl)-N-(isothiazol-4-yl)-2-phenylacetamide] was tested, and the “Activity (% inhibition)” value was “A (a % inhibition of about 75%)”.
For `Nc1cccc([C@H](C(=O)Nc2nccs2)N2Cc3ccccc3C2=O)c1` [Compound I-38, (R)-2-(3-aminophenyl)-2-(1-oxoisoindolin-2-yl)-N-(thiazol-2-yl)acetamide], the “Activity (% inhibition)” value was “A (a % inhibition of about 75%)”.
With `O=C(Nc1nccs1)C(c1ccccn1)N1Cc2ccc(-c3ccc4[nH]ccc4c3)cc2C1=O` (centres unmarked) [Compound I-123, 2-(6-(1H-indol-5-yl)-1-oxoisoindolin-2-yl)-2-(pyridin-2-yl)-N-(thiazol-2-yl)acetamide] the “Activity (% inhibition)” value was “D (a % inhibition of between about 0% to about 25%)”.
In the case of `O=C(Nc1nccs1)[C@@H](c1ccccc1)N1Cc2ccc(-c3ccsc3)cc2C1=O` [Compound I-47, (R)-2-(1-oxo-6-(thiophen-3-yl)isoindolin-2-yl)-2-phenyl-N-(thiazol-2-yl)acetamide], the “Activity (% inhibition)” value is reported as “B (a % inhibition of between about 50% to about 75%)”.
For `O=C(Nc1nccs1)[C@H](Cc1ccccc1)N1Cc2ccccc2C1=O` [Compound I-45, (S)-2-(1-oxoisoindolin-2-yl)-3-phenyl-N-(thiazol-2-yl) propanamide], the “Activity (% inhibition)” value was “A (a % inhibition of about 75%)”.
For `O=C(Nc1nc(C(F)(F)F)cs1)[C@@H](c1ccccc1)N1Cc2ccc(-c3ccc4[nH]ccc4c3)cc2C1=O` [Compound I-132, (R)-2-(6-(1H-indol-5-yl)-1-oxoisoindolin-2-yl)-2-phenyl-N-(4-(trifluoromethyl)thiazol-2-yl)acetamide], the “Activity (% inhibition)” value was “A (a % inhibition of about 75%)”.
`O=C(Nc1ncccc1Cl)[C@@H](c1ccccc1)N1Cc2ccccc2C1=O` [Compound I-57, (R)-N-(3-chloropyridin-2-yl)-2-(1-oxoisoindolin-2-yl)-2-phenylacetamide] was tested, and the “Activity (% inhibition)” value was “A (a % inhibition of about 75%)”.
`O=C(Nc1nc(Br)cs1)[C@@H](Cc1ccccc1)N1Cc2ccccc2C1=O` [Compound I-50, (R)-N-(4-bromothiazol-2-yl)-2-(1-oxoisoindolin-2-yl)-3-phenylpropanamide] was tested, and the “Activity (% inhibition)” value was “A (a % inhibition of about 75%)”.
`O=C(Nc1ncc(Br)s1)[C@@H](c1ccccc1)N1Cc2ccccc2C1=O` [Compound I-40, (R)-N-(5-bromothiazol-2-yl)-2-(1-oxoisoindolin-2-yl)-2-phenylacetamide] was tested, and the “Activity (% inhibition)” value was “A (a % inhibition of about 75%)”.
For `O=C(Nc1nc(C(F)(F)F)cs1)[C@@H](c1ccccc1)N1Cc2ccccc2C1=O` [Compound I-6, (R)-2-(1-oxoisoindolin-2-yl)-2-phenyl-N-(4-(trifluoromethyl)thiazol-2-yl)acetamide], the “Activity (% inhibition)” value was “A (a % inhibition of about 75%)”.
`O=C(Nc1ncc[nH]1)[C@@H](c1ccccc1)N1Cc2ccccc2C1=O` [Compound I-34, (R)-N-(1H-imidazol-2-yl)-2-(1-oxoisoindolin-2-yl)-2-phenylacetamide] was tested, and the “Activity (% inhibition)” value was “A (a % inhibition of about 75%)”.
In the case of `O=C(Nc1nccs1)[C@@H](c1ccccc1)N1Cc2cc(Nc3cccc(CN4CCCC4)c3)ccc2C1=O` [Compound I-95, (R)-2-(1-oxo-5-((3-(pyrrolidin-1-ylmethyl)phenyl)amino)isoindolin-2-yl)-2-phenyl-N-(thiazol-2-yl)acetamide], the “Activity (% inhibition)” value is reported as “B (a % inhibition of between about 50% to about 75%)”.
`O=C(Nc1nccs1)[C@H](c1ccccc1)N1Cc2ccccc2C1=O` [Compound I-21, (S)-2-(1-oxoisoindolin-2-yl)-2-phenyl-N-(thiazol-2-yl) acetamide] was tested, and the “Activity (% inhibition)” value was “B (a % inhibition of between about 50% to about 75%)”.
For `CNC(=O)c1csc(NC(=O)[C@@H](c2ccccc2)N2Cc3ccccc3C2=O)n1` [Compound I-9, (R)-N-methyl-2-(2-(1-oxoisoindolin-2-yl)-2-phenylacetamido) thiazole-4-carboxamide], the “Activity (% inhibition)” value was “A (a % inhibition of about 75%)”.
With `O=C(Nc1nccs1)[C@@H](c1ccccc1)N1Cc2ccc(-c3cccnc3)cc2C1=O` [Compound I-60, (R)-2-(1-oxo-6-(pyridin-3-yl)isoindolin-2-yl)-2-phenyl-N-(thiazol-2-yl)acetamide] the “Activity (% inhibition)” value was “C (a % inhibition of between about 25% to about 50%)”.
In the case of `O=C(Nc1nccs1)[C@@H](c1ccccc1)N1Cc2ccc(-c3ccc4cc[nH]c4c3)cc2C1=O` [Compound I-67, (R)-2-(6-(1H-indol-6-yl)-1-oxoisoindolin-2-yl)-2-phenyl-N-(thiazol-2-yl)acetamide], the “Activity (% inhibition)” value is reported as “C (a % inhibition of between about 25% to about 50%)”.
For `CCOC(=O)c1csc(NC(=O)[C@H](Cc2ccccc2)N2Cc3ccccc3C2=O)n1` [Compound I-48, ethyl (S)-2-(2-(1-oxoisoindolin-2-yl)-3-phenylpropanamido) thiazole-4-carboxylate], the “Activity (% inhibition)” value was “A (a % inhibition of about 75%)”.
In the case of `O=C(Nc1nccs1)C(c1ccccn1)N1Cc2ccc(-c3ccc(N4CCNCC4)cc3)cc2C1=O` (centres unmarked) [Compound I-124, 2-(1-oxo-6-(4-(piperazin-1-yl)phenyl)isoindolin-2-yl)-2-(pyridin-2-yl)-N-(thiazol-2-yl)acetamide], the “Activity (% inhibition)” value is reported as “D (a % inhibition of between about 0% to about 25%)”.
With `Nc1cccc(-c2ccc3c(c2)C(=O)N([C@@H](C(=O)Nc2nccs2)c2ccccc2)C3)c1` [Compound I-73, (R)-2-(6-(3-aminophenyl)-1-oxoisoindolin-2-yl)-2-phenyl-N-(thiazol-2-yl)acetamide] the “Activity (% inhibition)” value was “C (a % inhibition of between about 25% to about 50%)”.
